Assay: Photochromic properties of lens samples (2 mm, compound in the mass of cross-linked matrix I or II) exposed to UV radiation from a xenon lamp
Type: physicochemical
Conditions: lens sample
Description: The matrix used in accordance with the present invention may be one of two types:
A homopolymer of the monomer DIACRYL 121 (D121 : tetraethoxylated Bisphenol A dimethylmethacrylate), marketed by Akzo Nobel; or
A copolymer comprised of a 50/50 mixture by weight of D121 (as above) and polyethylene glycol dimethacrylate (Molecular weight = 400) (PEGDMA 400).
10^-5 moles of at least one compound of the invention, together with 0.2% by weight of AMBN (2,2'-azobis(2-methylbutyronitrile)) provided by Akzo, are added to 10 g of formulations able to generate cross-linked matrix I or II. The formulations thus prepared are then poured into a lens mould of 2 mm thickness and then cured by heating at 60°C for 6 hours, followed by heating at 80°C for 2 hours to give a lens sample. The photochromic properties of the lens samples thus obtained were then evaluated as follows : Said lens sample, containing said photochromic compounds in its mass, is exposed to a UV radiation (source: xenon lamp).

[1] = Matrix I (homopolymer of DIACRYL 121)
[2] = Matrix II (50/50 D121 / PEGDMA 400 copolymer)

OID : optical induced density (D∞-D0) [1] | T0 : the transmission before exposure to UV [1] [%] | λmax: the maximum absorption in the visible spectrum after UV irradiation [1] [nm] | OID : optical induced density (D∞-D0) [2] | T0 : the transmission before exposure to UV [2] [%] | λmax: the maximum absorption in the visible spectrum after UV irradiation [2] [nm] | SMILES | TD15: the transmission after 15 minutes' exposure to UV [1] [%] | TD15: the transmission after 15 minutes' exposure to UV [2] [%]
 |  |  | 0.765 | 89.0 | 504 | COc1ccc(C2(c3ccc(OC)cc3OC)C=Cc3c(c(C(=O)N4CCCCC4)cc4ccccc34)O2)c(OC)c1 [Example 9, 3,3-bis(2,4-dimethoxyphenyl)-5-piperidinocarbonyl-3H-naphtho[2,1-b]pyran] |  | 15.3
0.746 | 88.0 | 512 | 0.805 | 88.1 | 512 | COc1ccc(C2(c3ccc(OC)c(OC)c3)C=Cc3c(c(C(=O)N4CCOCC4)cc4ccccc34)O2)c(OC)c1 (stereo not drawn) [Example 7, 3-(2,4-dimethoxyphenyl)-3-(3,4-dimethoxyphenyl)-5-morpholinocarbonyl-3H-naphtho[2,1-b]pyran] | 15.8 | 13.8
0.637 | 85.4 | 570 | 0.769 | 85.8 | 570 | COc1ccc(C2(c3ccc(N4CCCCC4)cc3)C=Cc3c(c(C(=O)N4CCCCC4)cc4ccccc34)O2)c(OC)c1 (stereo not drawn) [Example 8, 3-(2,4-dimethoxyphenyl)-3-(p-N-piperidinophenyl)-5-piperidinocarbonyl-3H-naphtho[2,1-b]pyran] | 19.7 | 14.6

Second part, the compound before the results:

SMILES | OID : optical induced density (D∞-D0) [1] | T0 : the transmission before exposure to UV [1] [%] | λmax: the maximum absorption in the visible spectrum after UV irradiation [1] [nm] | OID : optical induced density (D∞-D0) [2] | T0 : the transmission before exposure to UV [2] [%] | λmax: the maximum absorption in the visible spectrum after UV irradiation [2] [nm] | TD15: the transmission after 15 minutes' exposure to UV [1] [%] | TD15: the transmission after 15 minutes' exposure to UV [2] [%]
CN(C)c1ccc(C2(c3ccc(N(C)C)c4ccccc34)C=Cc3c(c(C(=O)N4CCOCC4)cc4ccccc34)O2)cc1 (stereo not drawn) [Example 4, 3-(4-dimethylaminophenyl)-3-(4-dimethylaminonapthyl)-5-morpholinocarbonyl-3H-naphtho[2,1-b]pyran] | 0.325 | 65.0 | 556 |  |  |  | 30.8 | 
COc1ccc(C2(c3ccc(OC)cc3OC)C=Cc3c(c(C(=O)N4CCOCC4)cc4ccccc34)O2)c(OC)c1 [Example 2, 3,3-bis(2,4-dimethoxyphenyl)-5-morpholinocarbonyl-3H-naphtho[2,1-b]pyran] | 1.303 | 85.7 | 514 |  |  |  | 4.3 | 
C1=CC(c2ccccc2)(c2ccccc2)Oc2ccc3ccccc3c21 [Control, 3,3-bisphenyl-3H-naphtho[2,1-b]pyran, reference compound] |  |  |  | 0.280 | 88 | 436 |  | 44
Cc1ccc(NC(=O)c2cc3ccccc3c3c2OC(c2ccccc2)(c2ccccc2)C=C3)cc1 [Example 1, 3,3-diphenyl-5-p-tolylcarbamoyl-3H-naphtho[2,1-b]pyran] | 0.315 | 87.9 | 477 |  |  |  | 42.6 | 
COc1ccc(C2(c3ccc(OC)cc3OC)C=Cc3c(c(C(=O)N4CCOCC4)cc4ccccc34)O2)cc1 (stereo not drawn) [Example 6, 3-(2,4-dimethoxyphenyl)-3-(4-methoxyphenyl)-5-morpholinocarbonyl-3H-naphtho[2,1-b]pyran] | 1.931 | 85.4 | 510 | 2.146 | 84.0 |  | 1.0 | 0.6
COc1ccc(C2(c3ccc(OC)cc3OC)C=Cc3c(c(C(=O)N4CCc5ccccc54)cc4ccccc34)O2)c(OC)c1 [Example 5, 3,3-bis(2,4-dimethoxyphenyl)-5-indolinocarbonyl--3H-naphtho[2,1-b]pyran] | 1.063 | 85.6 | 514 | 1.634 | 84.0 | 514 | 7.4 | 2.0

Reference: patent EP1038870A1, “3,3-bis(aryl)-5-((N-(un)substituted)amido)naphthopyrans, their preparation, compositions and (co)polymer matrices containing them” (Corning S.A., priority 1999, dated 2000)
